Molecules are shown by their SMILES. Read-outs that look alike come from different tables or passages of the source.

The text below walks through data of publication PMC7841069, “Identification of Chalcone Derivatives as Inhibitors of Leishmania infantum Arginase and Promising Antileishmanial Agents” (Frontiers in Chemistry, 2021).

One data set can be described thus: Cytotoxicity assay (MTT). It is filed as cell-based. The note with it: mouse, read-out: RAW 264.7 CC50 ± SE. The procedure: (§1) RAW 264.7 macrophages were cultured in DMEM medium (Sigma-Aldrich, USA) supplemented with 10% fetal bovine serum at 37°C in 5% CO2 atmosphere. Cells were plated on 96-well microplates at a density of 10^5 cells/well and incubated at 37°C in 5% CO2 for 2 h. After this period, increasing concentrations of inhibitors (0.9–4,307 μM) were added and the cultures were incubated at 37°C in 5% CO2 for 48 h. Subsequently, cell viability was measured by a colorimetric assay using 3-(4,5-dimethylthiazol-2-yl)-2,5-diphenyl tetrazolium bromide (MTT) (Sigma-Aldrich, USA). MTT was added to the culture medium at a final concentration of 1.0 mg/mL, and cultures were incubated at 37°C in 5% CO2 for 3 h. MTT was transformed by the living cells in formazan crystals that were dissolved in DMSO. The concentration of formazan was measured spectrophotometrically at 570 nm (SpectraMax M5, Molecular Devices, CA). The 50% cytotoxic concentration (CC50) values were determined by the nonlinear regression fits of the dose-response curves using GraphPad Prism 8.0. All measurements were performed in triplicates, twice independently.

Data set [1] has as its system Leishmania infantum promastigotes. Description: Activity against Leishmania infantum promastigotes (resazurin). It is filed as cell-based. The note with it: for Selectivity Index PRO: CC50 host cell / IC50 promastigotes; for IC50: Leishmania infantum, read-out: Promastigotes IC50 ± SE. As for the experimental part: Promastigotes of Leishmania infantum strain MHOM/BR/1974/PP75 were cultured in Schneider's medium supplemented with 10% fetal bovine serum at 26°C. First, the selected LiARG inhibitors were diluted in culture medium at concentrations ranging from 2.9 to 1,723.0 μM. Then, late-exponential phase (after 96 h growth) L. infantum promastigotes, at a final density of 10^5 parasites/mL, were incubated with previously diluted inhibitors at 26°C for 96 h. Subsequently, parasite viability was determined by a colorimetric assay using resazurin (Sigma-Aldrich, USA). Resazurin was added to the culture medium at a final concentration of 0.001% (w/v), and cultures were further incubated at 26°C for 4 h (Rólon et al., [2006]). Resazurin is reduced to resorufin by living cells, and the relative concentration of resorufin/resazurin was measured spectrophotometrically at 570/600 nm (SpectraMax M5, Molecular Devices, CA), respectively. Fungizone® (2.0–650.0 nM) was used as the reference drug. The 50% inhibitory concentration (IC50) values were determined by the nonlinear regression fits of the dose-response curves using GraphPad Prism 8.0. All measurements were performed in triplicates, twice independently.
(§2) The selectivity index for promastigotes and intracellular amastigotes of L. infantum was calculated by taking the ratio between the CC50 obtained for the host cell and the IC50 obtained for the parasite. Inhibitors displaying selectivity index > 10 were considered low cytotoxic (Katsuno et al., [2015]).
Background: The colour change of resazurin is a common sign of viable cells or microbes.

Data set [2] has as its system RAW 264.7 macrophages. Also noted: method as in Ventura et al. (2015). The note with it: ref Ventura et al. (2015), read-out: IC50 for NO; cited from earlier work.
Data set [3] has as its system Leishmania infantum intracellular amastigotes. Description: Activity against intracellular amastigotes (promastigote recovery assay). The format is cell-based. The note with it: for Selectivity Index AMA: CC50 host cell / IC50 intracellular amastigotes. As for the experimental part:
(§3) Intracellular anti-amastigote activity was determined using the promastigote recovery assay with minor modifications (Ferreira et al., [2017]). RAW 264.7 macrophages were plated on 96-well microplates at a density of 10^5 cells/well and incubated at 37°C in 5% CO2 for 2 h. After this period, adherent cells were washed twice with phosphate buffered saline (PBS, pH 7.2) and infected with stationary-phase L. infantum promastigotes at a 10:1 parasite/macrophage ratio. After 4 h of infection at 37°C in 5% CO2, free parasites were removed by a wash step with PBS and infected macrophages were incubated for an additional 24 h to allow parasite differentiation into amastigotes. Then, infected cells were treated with increasing concentrations of selected LiARG inhibitors (11.0–54.0 μM) for 48 h. After this period, the culture supernatant was collected for the evaluation of NO production by the Griess reaction (Misko et al., [1993]), and cells were washed with PBS. Subsequently, PBHIL medium supplemented with 5% fetal bovine serum was added and the cultures were incubated at 26°C for 72 h to recover L. infantum promastigotes. Only viable amastigotes can differentiate into promastigotes. Then, parasite viability was determined by a colorimetric assay using MTT (1.0 mg/mL) (Sigma-Aldrich, USA), as described earlier. Fungizone® (130–540 nM) was used as the reference drug. Results were expressed as percentages of viability in relation to the control (100% viability). The 50% inhibitory concentration (IC50) values were determined by the nonlinear regression fits of the dose-response curves using GraphPad Prism 8.0. All measurements were performed in triplicates, twice independently.
as §2

Data set [4] deals with L. infantum-infected macrophages. Description: NO production by L. infantum-infected macrophages (Griess reaction). It is filed as cell-based. The note with it: 11–54 μM, 48 h, vs untreated control. The procedure: as §3
Figure 4 Effect of chalcone derivatives on the production of nitric oxide by L. infantum-infected macrophages. L. infantum-infected macrophages were treated with increasing concentrations of (A–D) chalcone derivatives (11–54 μM) or (E) the reference drug fungizone (0.13–0.54 μM) and nitrite concentration was measured by the Griess reaction. Control represents the amount of nitric oxide produced by L. infantum-infected macrophages in the absence of any treatment. Statistical analysis of the differences between mean values obtained for the experimental groups was done by ANOVA with Tukey's post hoc test.
On the technique in general: The Griess reaction detects nitrite, a stable product of nitric oxide.

In data set [5] the test system is RAW 264.7 macrophages. Description: Cytotoxicity assay (MTT). The note with it: 48 h. It is filed as cell-based. The procedure:
as §1

Data set [6] concerns Leishmania infantum arginase (LiARG). As to the kind of experiment: LiARG enzyme inhibition assay (urea formation, UREA CE kit). The format is biochemical. As to conditions: 100 μM inhibitor; control without inhibitor = 100% activity. As for the experimental part: LiARG expression and purification was performed as described previously (Garcia et al., [2019]). Escherichia coli BL21 (DE3) cells were transformed with RP1B-LiARG. Cells were grown at 37°C until mid-exponential phase (Abs600 ~ 0.6). Protein expression was induced with 1 mM IPTG and cells were grown for 16 h at 30°C. Cells were harvested by centrifugation, resuspended in lysis buffer [50 mM Tris-HCl (pH 8.0), 500 mM NaCl, 5 mM imidazol, 0.1% Triton-X 100, 250 μM PMSF, 10 mM β-mercaptoethanol] and lysed by sonication (15 cycles 60 s on and 60 s off, 100 W). The cell lysate was centrifuged (8,000 X g, 40 min, 4°C), and the clarified supernatant was loaded onto a His-Trap HP column (GE Healthcare, USA). A wash step with 100 mM manganese chloride was carried out for enzyme activation. LiARG was eluted with an imidazole gradient ranging from 5 to 500 mM. […] LiARG activity was measured using the UREA CE kit (Labtest, Brazil). Urea concentration was determined spectrophotometrically (SpectraMax M5, Molecular Devices, CA) by hydrolyzing urea into ammonia and then converting ammonia into indophenol blue, which absorbs light at 600 nm ([…] and Scott, [1960]). Enzyme activity was measured with 0.2 μg/mL LiARG incubated with 50 mM L-arginine in 50 mM CHES (pH 9.5) at 37°C for 5 min. […] The results are expressed as percentage of LiARG activity taking the enzymatic activity of the control as 100%. […]

For data set [7], the system named is Leishmania amazonensis arginase (LaARG). Also on record: method as in da Silva et al. (2019). As to conditions: 100 μM; ref da Silva et al. (2019); cited from earlier work.
[8] abbreviates: Leishmania infantum, Macrophage, 48 h, infected macrophages treated 48 h, promastigote recovery, MTT, read-out: Amastigotes IC50 ± SE.

The CC50 is the concentration that lowers cell viability or growth by half. Broadly, the IC50 is the concentration that inhibits the measured activity by half. Take `COc1ccc(C=CC(=O)c2ccc(Br)cc2)cc1OC` [LC14, 1-(4-bromophenyl)-3-(3,4-dimethoxyphenyl)-2-Propen-1-one]: the CC50 at 48 h in “Cytotoxicity assay (MTT)” (RAW 264.7 macrophages) stood at 75.1 ± 8.9 µM. Further, the “Selectivity Index PRO” value in data set [1] is recorded as less than 1. Besides, the IC50 in data set [1] (96 h, resazurin) is 283 ± 14.2 µM; in the data set on RAW 264.7 macrophages [2], 58.9 ± 6.8 µM.

As for `O=C(C=Cc1ccc(F)cc1)c1ccccc1Cl` [LC32, 1-(2-Chlorophenyl)-3-(4-fluorophenyl)-2-Propen-1-one], the CC50 at 48 h in the data set “Cytotoxicity assay (MTT)” (RAW 264.7 macrophages) is 479 ± 19.5 µM. For the same compound, the “Selectivity Index PRO” value in data set [1] was determined as 6.5. Also, the IC50 in data set [1] (96 h, resazurin) came out at 74.1 ± 10.9 µM; in data set [3] (setting [8]) it was 112 ± 19.8 µM. Moreover, the “Selectivity Index AMA” value in data set [3] came out at 4.3. Also, in data set [4], the “production of NO by L. infantum-infected macrophages” value (“production of NO” below) is listed as “significantly decreased”.

Regarding `COc1ccc(/C=C/C(=O)c2ccccc2Cl)cc1` [LC34], in “Cytotoxicity assay (MTT)” (RAW 264.7 macrophages), the CC50 at 48 h amounted to 3010 µM. Moreover, the “Selectivity Index PRO” value in data set [1] came out at 4.0. In addition, the half-inhibitory concentration (IC50) in data set [1] (96 h, resazurin) amounted to 747 ± 22.3 µM; in data set [3] (setting [8]), 65.4 ± 10.9 µM. In addition, the “Selectivity Index AMA” value in data set [3] was found to be 46.0. For the same compound, the “production of NO” value in data set [4] is listed as “no significant difference to the untreated control”.

As to `O=C(c1ccccc1)C(C(O)c1ccccc1Cl)C(O)c1ccccc1Cl` (stereo not shown) [LC37, 3-hydroxy-2-[-hydroxy(2-Chlorophenyl)methyl]-3-(2-Chlorophenyl)-1-phenyl-1-Propanone], the CC50 at 48 h in the data set “Cytotoxicity assay (MTT)” (RAW 264.7 macrophages) was greater than 4000 µM. For the same compound, in the data set on RAW 264.7 macrophages [5], the “RAW 264.7 CC50 ± SE” value is “did not inhibit the growth of RAW 264.7 macrophages at the highest concentration tested”. Also, in data set [1] (96 h, resazurin), the “Promastigotes IC50 ± SE” value is reported as “did not display in vitro activity” and the IC50 is greater than 1500 µM.

Consider `O=C(C=Cc1ccc([N+](=O)[O-])cc1)c1ccc(Br)cc1` [LC39, 1-(4-Bromophenyl)-3-(4-Nitrophenyl)-2-Propen-1-one], for which the CC50 at 48 h in the data set “Cytotoxicity assay (MTT)” is 4530 ± 212 µM. The “Selectivity Index PRO” value in data set [1] was 11.4. Also, the IC50 in data set [1] (96 h) was found to be 398 ± 44.2 µM; in data set [3] (Leishmania infantum, Macrophage, 48 h, read-out: Amastigotes IC50 ± SE, infected macrophages treated 48 h, promastigote recovery, MTT), 55.2 ± 3.8 µM; in data set [3] (read-out: Amastigotes IC50 ± SE, infected macrophages treated 48 h, promastigote recovery, MTT), 42.3 ± 17.1 µM. Besides, the “Selectivity Index AMA” value in data set [3] is 107.1. In data set [4], the “production of NO” value is on record as “no significant difference to the untreated control”.

As to `COc1ccc(C(=O)C=Cc2ccc([N+](=O)[O-])cc2)cc1` [LC41, 1-(4-Methoxyphenyl)-3-(4-Nitrophenyl)-2-Propen-1-one], the CC50 at 48 h in “Cytotoxicity assay (MTT)” (RAW 264.7 macrophages) came out at 1150 µM. Besides, the “Selectivity Index PRO” value in data set [1] was 3.6. Moreover, the IC50 in data set [1] (96 h, resazurin) was 319 ± 14.3 µM; in data set [3] (setting [8]), 70.4 ± 9.6 µM; in data set [3] (infected macrophages treated 48 h, promastigote recovery, MTT, read-out: Amastigotes IC50 ± SE), 43.7 ± 13.7 µM; with RAW 264.7 macrophages [2], 13.5 ± 5.5 µM. Besides, in data set [3], the “Selectivity Index AMA” value is given as 26.2. The “production of NO” value in data set [4] is given as “significantly decreased”.

As for `O=c1c(O)c(-c2ccc(O)c(O)c2)oc2cc(O)cc(O)c12` [quercetin], the “ARGLi inhibition (%) (100 μM)” value in data set [6] is 67.1 ± 10.3%.

As for `O=C1c2c(O)cc(O)cc2OC(c2ccc(O)c(O)c2)C1O` (stereo not shown) [taxifolin], the LaARG inhibition in data set [7] is 88%.
